The values below are quoted from earlier work in patent US7713983B2 (priority 2003, dated 2010).

For one series, the target named is NaV1.3 (Homo sapiens, UniProt Q9NY46). As to conditions: read-out: TTX IC50.
In a further series the test system is neuropathic pain. The settings on record: in vivo.

Sequence of NaV1.3 (Q9NY46 whole entry, looked up): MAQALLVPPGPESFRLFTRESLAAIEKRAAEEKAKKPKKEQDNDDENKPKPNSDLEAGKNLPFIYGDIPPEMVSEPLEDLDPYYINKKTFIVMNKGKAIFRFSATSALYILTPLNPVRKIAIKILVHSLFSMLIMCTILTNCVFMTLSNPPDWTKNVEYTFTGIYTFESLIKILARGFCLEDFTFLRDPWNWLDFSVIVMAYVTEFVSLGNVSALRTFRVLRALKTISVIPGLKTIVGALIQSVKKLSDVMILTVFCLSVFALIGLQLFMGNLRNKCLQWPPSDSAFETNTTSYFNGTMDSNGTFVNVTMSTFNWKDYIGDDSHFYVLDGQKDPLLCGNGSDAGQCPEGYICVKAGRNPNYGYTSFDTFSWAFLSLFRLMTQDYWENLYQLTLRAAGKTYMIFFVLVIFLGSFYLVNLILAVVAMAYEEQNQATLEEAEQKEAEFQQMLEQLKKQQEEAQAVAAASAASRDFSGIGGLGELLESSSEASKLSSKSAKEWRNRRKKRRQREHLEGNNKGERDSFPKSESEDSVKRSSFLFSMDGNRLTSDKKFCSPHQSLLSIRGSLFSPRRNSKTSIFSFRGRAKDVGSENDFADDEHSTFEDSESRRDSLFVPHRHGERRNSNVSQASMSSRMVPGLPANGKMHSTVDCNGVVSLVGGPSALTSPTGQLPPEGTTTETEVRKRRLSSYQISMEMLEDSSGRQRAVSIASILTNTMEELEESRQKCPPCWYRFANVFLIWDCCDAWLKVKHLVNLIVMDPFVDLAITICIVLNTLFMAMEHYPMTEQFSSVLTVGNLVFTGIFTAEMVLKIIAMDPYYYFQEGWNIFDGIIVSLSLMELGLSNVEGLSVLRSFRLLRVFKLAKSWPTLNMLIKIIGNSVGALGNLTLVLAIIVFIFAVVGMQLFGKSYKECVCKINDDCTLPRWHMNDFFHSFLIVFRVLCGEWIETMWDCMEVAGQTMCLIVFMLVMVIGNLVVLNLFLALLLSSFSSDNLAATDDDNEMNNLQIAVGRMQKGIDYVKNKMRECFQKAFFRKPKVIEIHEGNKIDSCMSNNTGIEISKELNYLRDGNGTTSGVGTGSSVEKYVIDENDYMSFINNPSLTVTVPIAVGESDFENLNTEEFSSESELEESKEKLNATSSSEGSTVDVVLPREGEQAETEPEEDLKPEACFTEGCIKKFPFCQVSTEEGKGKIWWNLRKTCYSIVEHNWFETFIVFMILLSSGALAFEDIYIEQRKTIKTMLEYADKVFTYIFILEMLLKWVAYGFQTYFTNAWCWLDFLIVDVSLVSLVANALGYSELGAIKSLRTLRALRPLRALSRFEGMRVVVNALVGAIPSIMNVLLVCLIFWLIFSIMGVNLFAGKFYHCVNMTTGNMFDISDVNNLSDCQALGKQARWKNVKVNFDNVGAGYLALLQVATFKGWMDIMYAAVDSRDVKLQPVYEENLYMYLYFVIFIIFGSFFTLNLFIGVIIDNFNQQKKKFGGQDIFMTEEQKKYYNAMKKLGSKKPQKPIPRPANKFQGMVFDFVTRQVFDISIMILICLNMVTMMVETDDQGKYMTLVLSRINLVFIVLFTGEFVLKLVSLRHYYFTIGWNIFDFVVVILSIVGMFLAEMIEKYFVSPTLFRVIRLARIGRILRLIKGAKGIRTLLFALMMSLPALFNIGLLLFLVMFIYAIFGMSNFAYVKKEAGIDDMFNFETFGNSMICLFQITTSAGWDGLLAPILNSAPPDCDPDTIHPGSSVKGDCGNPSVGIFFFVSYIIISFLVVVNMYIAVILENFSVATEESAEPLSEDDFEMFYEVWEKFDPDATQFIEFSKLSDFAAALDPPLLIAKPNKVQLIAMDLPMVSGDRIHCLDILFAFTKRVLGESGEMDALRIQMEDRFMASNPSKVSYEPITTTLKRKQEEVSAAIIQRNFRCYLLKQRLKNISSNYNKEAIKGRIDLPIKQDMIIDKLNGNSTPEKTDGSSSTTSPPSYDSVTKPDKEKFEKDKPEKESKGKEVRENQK

As for `NC1=N[C@H](O)[C@H]2[C@H]3O[C@]4(O)O[C@@H]([C@@H](O)[C@@]2(N1)[C@@H]4O)[C@]3(O)CO` [TTX, tetrodotoxin], the IC50 at NaV1.3 was 15 nM.
In the case of `NCC1(CC(=O)O)CCCCC1` [Gabapentin], the “share of patients in whom it works” value in the series with neuropathic pain is on record as 60%.

In general, IC50 refers to the midpoint of a concentration-inhibition curve.
